Measured values from US20100069316A1, “TREATMENT FOR MULTIPLE MYELOMA” (Ares Trading S.A., priority 2006, published 2010).
Read-outs that look alike come from different tables or passages of the source.

Columns and labels:
Assay type in all cases: cell-based, human
XG7 myeloma cell line = test: Cell proliferation assay (tritiated thymidine incorporation), XG7; details: for IC50: Homo sapiens; for IC10: XG7, concentration yielding 10% inhibition of proliferation
Procedure: (§1) Myeloma cells were harvested in the exponential growth phase (at day 3 after culture passage when the cell concentration is around 5×10^5 cells/ml). Cells were washed twice, cultured for 3 hours in RPMI1640 and 10% FCS, washed twice. This makes it possible to remove cell-bound growth factors (in particular recombinant IL-6). Then cells are plated in 96-well flat-bottomed microplates at various concentrations depending on their doubling time: • 5×10^3 cells/well in 100 μl for the cell lines: XG-1, XG-7 • 10^4 cells/well in […] for the cell lines: XG-2, XG-4, XG-6, XG-11, PRMI8226, L363 • 2×10^4 cells/well in 100 μl for the cell lines: XG-3, XG-12, XG-13, XG-14, XG-19, XG-20
(§2) The culture medium used were: • PRMI1640, 10% FCS and 0.5 ng/ml of IL-6 for XG-1, XG-2, XG-3, XG-4, XG-6, XG-7, XG-11, XG-12, XG-13, XG-19, XG-20 cells • X-VIVO20 and 0.5 ng/ml IL-6 for XG-14 cells • PRMI1640 and 10% FCS for RPMI8226 and L363 cells
(§3) The diluted compounds, DMSO or control culture medium were added in 100 μl at the start of the culture. Three culture wells were done for one compound dilution and the experiments were done twice (finally six culture wells for one compound dilution).
(§4) Cells were cultured for 4 days. Eight hours before the end of the culture, 0.5 μCi of tritiated thymidine were added in 50 μl of RPMI1640 and 10% FCS. Cells were then extracted with a cell collector and the thymidine incorporation was determined using a beta cell counter.
(§5) For each experiment, the mean tritiated thymidine incorporations (mean values determined on three culture wells) were plotted against the logarithmic concentrations of the compound. The curves were fitted with exponential regression, which was determined using the concentrations defining the inhibition response (usually 3-4 concentrations).
(§6) The concentrations yielding 50% and 90% inhibition of the proliferation of myeloma cells were determined with these regression curves.
(§7) The concentration yielding 10% (IC10) or 50% (IC50) inhibition of the myeloma cell lines were determined and the data are listed in Table 2.
(§8) Compound A was tested in combination with melphalan or Velcade. Increasing concentration of compound A (0, 0.01, 0.03, 0.12, 0.37, 1.1, 3.1, 10, 30 μM) were applied on 4 myeloma cell lines alone or in combination with Velcade or melphalan at concentration yielding around 10% or 50% inhibition.

L363 myeloma cell line = test: Cell proliferation assay (tritiated thymidine incorporation), L363; details: for IC50: Homo sapiens; for IC10: L363, concentration yielding 10% inhibition of proliferation
Procedure: as §1, §2, §3, §4, §5, §6, §7, §8

XG3 myeloma cell line = test: Cell proliferation assay (tritiated thymidine incorporation), XG3; details: for IC50: Homo sapiens; for IC10: XG3, concentration yielding 10% inhibition of proliferation
Procedure: as §1, §2, §3, §4, §5, §6, §7, §8

XG12 myeloma cell line = test: Cell proliferation assay (tritiated thymidine incorporation), XG12; details: for IC50: Homo sapiens; for IC10: XG12, concentration yielding 10% inhibition of proliferation
Procedure: as §1, §2, §3, §4, §5, §6, §7, §8

| IC50 (XG7 myeloma cell line; XG7, proliferation, read-out: IC50) | IC50 (L363 myeloma cell line; L-363, L363, proliferation, read-out: IC50) | IC50 (XG3 myeloma cell line; XG3, proliferation, read-out: IC50) | IC50 (XG12 myeloma cell line; XG12, proliferation, read-out: IC50) | SMILES | IC50 (XG7 myeloma cell line) | IC10 (XG7 myeloma cell line) | IC50 (L363 myeloma cell line; L-363) | IC10 (L363 myeloma cell line) | IC50 (XG3 myeloma cell line) | IC10 (XG3 myeloma cell line) | IC50 (XG12 myeloma cell line) | IC10 (XG12 myeloma cell line) |
| --- | --- | --- | --- | --- | --- | --- | --- | --- | --- | --- | --- | --- |
|  |  |  |  | N[C@@H](Cc1ccc(N(CCCl)CCCl)cc1)C(=O)O [Melphalan, melphalan] | 1180 nM | 0.409 µM | 457 nM | 0.110 µM | 1680 nM | 0.490 µM | 1230 nM | 0.318 µM |
| 3.5 nM | 8.4 nM | 2.2 nM | 3.9 nM | CC(C)C[C@H](NC(=O)[C@H](Cc1ccccc1)NC(=O)c1cnccn1)B(O)O [Velcade, bortezomib] |  | 0.0014 µM |  | 0.0049 µM |  | 0.0016 µM |  | 0.0016 µM |
